{"source": "patent US8633183B2", "about": "(priority 2010, dated 2014)", "data": [{"target": "PI3Kalpha (Homo sapiens (Human), UniProt P42336)", "sequence (P42336 whole entry, looked up)": "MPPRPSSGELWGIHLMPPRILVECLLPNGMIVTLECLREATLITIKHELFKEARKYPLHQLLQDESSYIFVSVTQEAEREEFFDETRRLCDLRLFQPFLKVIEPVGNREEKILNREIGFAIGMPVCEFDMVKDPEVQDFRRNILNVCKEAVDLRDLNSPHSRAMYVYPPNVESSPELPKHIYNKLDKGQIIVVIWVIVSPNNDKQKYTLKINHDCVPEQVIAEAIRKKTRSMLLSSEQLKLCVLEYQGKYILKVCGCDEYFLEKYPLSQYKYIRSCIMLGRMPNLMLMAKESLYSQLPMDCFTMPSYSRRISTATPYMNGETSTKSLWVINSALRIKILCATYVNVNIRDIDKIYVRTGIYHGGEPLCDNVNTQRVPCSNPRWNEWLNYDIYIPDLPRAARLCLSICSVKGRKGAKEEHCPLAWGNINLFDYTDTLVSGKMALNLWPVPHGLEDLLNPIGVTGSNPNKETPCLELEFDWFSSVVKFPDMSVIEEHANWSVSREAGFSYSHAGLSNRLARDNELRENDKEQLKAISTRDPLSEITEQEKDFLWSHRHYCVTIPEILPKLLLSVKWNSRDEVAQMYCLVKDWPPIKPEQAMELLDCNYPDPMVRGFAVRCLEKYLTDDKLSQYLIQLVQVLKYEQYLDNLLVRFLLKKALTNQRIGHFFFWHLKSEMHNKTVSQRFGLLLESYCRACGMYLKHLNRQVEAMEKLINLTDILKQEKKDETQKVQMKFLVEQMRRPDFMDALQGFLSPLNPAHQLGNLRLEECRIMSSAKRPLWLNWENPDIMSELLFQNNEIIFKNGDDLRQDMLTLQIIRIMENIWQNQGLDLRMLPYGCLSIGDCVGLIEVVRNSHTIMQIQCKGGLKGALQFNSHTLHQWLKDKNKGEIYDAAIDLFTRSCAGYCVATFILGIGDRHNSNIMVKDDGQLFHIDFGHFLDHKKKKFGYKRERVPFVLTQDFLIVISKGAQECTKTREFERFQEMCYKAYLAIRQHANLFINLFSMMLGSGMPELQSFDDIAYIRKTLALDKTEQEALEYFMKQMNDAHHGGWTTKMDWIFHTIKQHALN", "conditions": "read-out: IC50 PI3K", "units": {"IC50": "µM"}, "method": "Plot the concentration of each compound versus the emission ratio. […] Determination of IC50 values can be obtained by curve fitting (sigmoidal dose response, variable slope) using Prism software from GraphPad).\nMethod Type: Filter-Binding-Assay\nCompounds are serially diluted in assay buffer+6% DMSO and 10 μl of each dilution is added per well of a 96-well plate (compounds are tested in duplicates) and mixed with 30 μl of the lipid vesicles containing PDGFR-Peptide (0.5 μM final) and PI3K alpha (25 ng/well final). The mixture is then incubated for 20 minutes at room temperature. Subsequently, 20 μl of assay buffer containing 3 μM cold ATP and 0.5 μCi/20 μl 33P-ATP are added. The plates are then incubated at room temperature for 120 minutes (shaking with 300 rpm). The reaction mix is transferred onto filter plates using “filtermate harvester” from Packard: filter plates are rinsed with PBS, then the reaction mix is filtered onto the filter plate, washed 5 times with PBS and are allowed to dry for 30-60 minutes at 50° C.\nAs positive control serve wells containing vehicle controls (1% DMSO in assay buffer), showing non-inhibited kinase activity (high values). Wells containing assay buffer instead of enzyme can serve as control for background activity (low values).\nCalculate IC50 values using the Smiley program (based on GrapPad Prism)", "values": [{"compound": "CCc1ncnc(-c2cc(F)c(C(=O)N3CC4(CN(C)C4)C3)c(Cl)c2)c1C#Cc1ccc(N)nc1", "note": "[Example E-289]", "IC50": 0.298}, {"compound": "CCc1ncnc(-c2ccc(C(=O)N3CCN(Cc4cc(C)no4)CC3)c(F)c2)c1C#Cc1ccc(N)nc1", "note": "[Example E-290]", "IC50": 0.2}, {"compound": "CCc1ncnc(-c2ccc(C(=O)N3CCN(C(C)COC)CC3)c(F)c2)c1C#Cc1ccc(N)nc1", "note": "(stereo not drawn) [Example E-291]", "IC50": 0.22}, {"compound": "CCc1ncnc(-c2ccc(C(=O)N3CCN(C(C)CO)CC3)c(F)c2)c1C#Cc1ccc(N)nc1", "note": "(stereo not drawn) [Example E-292]", "IC50": 0.212}, {"compound": "CCc1ncnc(-c2ccc(C(=O)N3CCN(C4CCCC4O)CC3)c(F)c2)c1C#Cc1ccc(N)nc1", "note": "(stereo not drawn) [Example E-294]", "IC50": 0.137}, {"compound": "CCc1ncnc(-c2ccc(C(=O)N3CCN(CC(C)O)CC3)c(F)c2)c1C#Cc1ccc(N)nc1", "note": "(stereo not drawn) [Example E-296]", "IC50": 0.121}, {"compound": "CCc1ncnc(-c2cc(F)c(C(=O)N3CCN(C(C)COC)CC3)c(F)c2)c1C#Cc1ccc(N)nc1", "note": "(stereo not drawn) [Example E-298]", "IC50": 0.187}, {"compound": "CCc1ncnc(-c2cc(F)c(C(=O)N3CCN(C(C)CO)CC3)c(F)c2)c1C#Cc1ccc(N)nc1", "note": "(stereo not drawn) [Example E-299]", "IC50": 0.16}, {"compound": "CCc1ncnc(-c2cc(F)c(C(=O)N3CCN(Cc4nc(C)c(C)o4)CC3)c(F)c2)c1C#Cc1ccc(N)nc1", "note": "[Example E-300]", "IC50": 0.783}, {"compound": "CCc1ncnc(-c2cc(F)c(C(=O)N3CCN(C4CCCC4O)CC3)c(F)c2)c1C#Cc1ccc(N)nc1", "note": "(stereo not drawn) [Example E-301]", "IC50": 0.106}, {"compound": "CCc1ncnc(-c2cc(F)c(C(=O)N3CCN(CCOCCO)CC3)c(F)c2)c1C#Cc1ccc(N)nc1", "note": "[Example E-302]", "IC50": 0.113}, {"compound": "CCc1ncnc(-c2cc(F)c(C(=O)N3CCN(Cc4cc(C)no4)CC3)c(Cl)c2)c1C#Cc1ccc(N)nc1", "note": "[Example E-304]", "IC50": 0.108}, {"compound": "CCc1ncnc(-c2cc(F)c(C(=O)N3CCN(C(C)COC)CC3)c(Cl)c2)c1C#Cc1ccc(N)nc1", "note": "(stereo not drawn) [Example E-305]", "IC50": 0.11}, {"compound": "CCc1ncnc(-c2cc(F)c(C(=O)N3CCN(C(C)CO)CC3)c(Cl)c2)c1C#Cc1ccc(N)nc1", "note": "(stereo not drawn) [Example E-306]", "IC50": 0.108}, {"compound": "CCc1ncnc(-c2cc(F)c(C(=O)N3CCN(Cc4nc(C)c(C)o4)CC3)c(Cl)c2)c1C#Cc1ccc(N)nc1", "note": "[Example E-307]", "IC50": 0.193}, {"compound": "CCc1ncnc(-c2cc(F)c(C(=O)N3CCN(C4CCCC4O)CC3)c(Cl)c2)c1C#Cc1ccc(N)nc1", "note": "(stereo not drawn) [Example E-308]", "IC50": 0.0634}, {"compound": "CCc1ncnc(-c2cc(F)c(C(=O)N3CCN(CC(C)O)CC3)c(Cl)c2)c1C#Cc1ccc(N)nc1", "note": "(stereo not drawn) [Example E-309]", "IC50": 0.239}, {"compound": "CCc1ncnc(-c2cc(F)c(C(=O)N3CCN(CCOCCO)CC3)c(Cl)c2)c1C#Cc1ccc(N)nc1", "note": "[Example E-310]", "IC50": 0.0861}, {"compound": "CCc1ncnc(-c2cc(F)c(C(=O)N3CCC4(CC3)CC(=O)CO4)c(Cl)c2)c1C#Cc1ccc(N)nc1", "note": "[Example E-311]", "IC50": 0.0691}, {"compound": "CCc1ncnc(-c2ccc(C(=O)N3CCN(Cc4cc(C)no4)CC3)c(Cl)c2)c1C#Cc1ccc(N)nc1", "note": "[Example E-312]", "IC50": 0.11}, {"compound": "CCc1ncnc(-c2ccc(C(=O)N3CCN(C(C)COC)CC3)c(Cl)c2)c1C#Cc1ccc(N)nc1", "note": "(stereo not drawn) [Example E-313]", "IC50": 0.122}, {"compound": "CCc1ncnc(-c2ccc(C(=O)N3CCN(Cc4nc(C)c(C)o4)CC3)c(Cl)c2)c1C#Cc1ccc(N)nc1", "note": "[Example E-315]", "IC50": 0.127}, {"compound": "CCc1ncnc(-c2ccc(C(=O)N3CCN(C4CCCC4O)CC3)c(Cl)c2)c1C#Cc1ccc(N)nc1", "note": "(stereo not drawn) [Example E-316]", "IC50": 0.0571}, {"compound": "CCc1ncnc(-c2ccc(C(=O)N3CCN(CC(C)O)CC3)c(Cl)c2)c1C#Cc1ccc(N)nc1", "note": "(stereo not drawn) [Example E-317]", "IC50": 0.0928}, {"compound": "CCc1ncnc(-c2ccc(C(=O)N3CCN(CCOCCO)CC3)c(Cl)c2)c1C#Cc1ccc(N)nc1", "note": "[Example E-318]", "IC50": 0.107}, {"compound": "CCc1ncnc(-c2ccc(C(=O)N3CCC4(CC3)CC(NC(=O)OC(C)(C)C)C4)c(F)c2)c1C#Cc1ccc(N)nc1", "note": "[Example E-319]", "IC50": 0.36}, {"compound": "CCc1ncnc(-c2ccc(C(=O)N3CCC4(CC3)CC(N)C4)c(F)c2)c1C#Cc1ccc(N)nc1", "note": "[Example E-320]", "IC50": 1.3}, {"compound": "CCc1ncnc(-c2ccc(C(=O)N3CCC4(CC3)CN(C(=O)OC(C)(C)C)CCO4)c(F)c2)c1C#Cc1ccc(N)nc1", "note": "[Example E-321]", "IC50": 0.412}, {"compound": "CCc1ncnc(-c2ccc(C(=O)N3CCC4(CC3)CNCCO4)c(F)c2)c1C#Cc1ccc(N)nc1", "note": "[Example E-322]", "IC50": 0.391}, {"compound": "CCc1ncnc(-c2ccc(C(=O)N3CCC4(CN(C(=O)OC(C)(C)C)C4)C3)c(F)c2)c1C#Cc1ccc(N)nc1", "note": "[Example E-323]", "IC50": 0.842}, {"compound": "CCc1ncnc(-c2ccc(C(=O)N3CCC4(CNC4)C3)c(F)c2)c1C#Cc1ccc(N)nc1", "note": "[Example E-324]", "IC50": 0.935}, {"compound": "CCc1ncnc(-c2ccc(C(=O)N3CCOC4(CCN(C(=O)OC(C)(C)C)CC4)C3)c(F)c2)c1C#Cc1ccc(N)nc1", "note": "[Example E-325]", "IC50": 1.18}, {"compound": "CCc1ncnc(-c2ccc(C(=O)N3CCOC4(CCNCC4)C3)c(F)c2)c1C#Cc1ccc(N)nc1", "note": "[Example E-326]", "IC50": 0.367}, {"compound": "CCc1ncnc(-c2ccc(C(=O)N3CCC4(CCN(C(=O)OC(C)(C)C)CC4)C3)c(F)c2)c1C#Cc1ccc(N)nc1", "note": "[Example E-327]", "IC50": 1.36}, {"compound": "CCc1ncnc(-c2ccc(C(=O)N3CCC4(CCNCC4)C3)c(F)c2)c1C#Cc1ccc(N)nc1", "note": "[Example E-328]", "IC50": 0.586}, {"compound": "CCc1ncnc(-c2ccc(C(=O)N3C[C@H]4CN(C(=O)OC(C)(C)C)C[C@H]4C3)c(F)c2)c1C#Cc1ccc(N)nc1", "note": "[Example E-329]", "IC50": 0.238}, {"compound": "CCc1ncnc(-c2ccc(C(=O)N3C[C@H]4CNC[C@H]4C3)c(F)c2)c1C#Cc1ccc(N)nc1", "note": "[Example E-330]", "IC50": 0.601}, {"compound": "CCc1ncnc(-c2ccc(C(=O)N3C[C@@H]4CCN(C(=O)OC(C)(C)C)[C@@H]4C3)c(F)c2)c1C#Cc1ccc(N)nc1", "note": "[Example E-331]", "IC50": 0.151}, {"compound": "CCc1ncnc(-c2ccc(C(=O)N3C[C@@H]4CCN[C@@H]4C3)c(F)c2)c1C#Cc1ccc(N)nc1", "note": "[Example E-332]", "IC50": 0.655}, {"compound": "CCc1ncnc(-c2cc(Cl)c(C(=O)N3CC4(CN(C)C4)C3)c(Cl)c2)c1C#Cc1ccc(N)nc1", "note": "[Example E-333]", "IC50": 0.599}, {"compound": "CCc1ncnc(-c2ccc(C(=O)N3CC4(CN(C)C4)C3)c(Cl)c2)c1C#Cc1ccc(N)nc1", "note": "[Example E-334]", "IC50": 0.966}, {"compound": "CCc1ncnc(-c2cc(Cl)c(C(=O)N3CCC4(CC3)CN(C)C4)c(Cl)c2)c1C#Cc1ccc(N)nc1", "note": "[Example E-335]", "IC50": 2.21}, {"compound": "CCc1ncnc(-c2cc(F)c(C(=O)N3CCC4(CC3)CN(C)C4)c(F)c2)c1C#Cc1ccc(N)nc1", "note": "[Example E-336]", "IC50": 0.773}, {"compound": "CCc1ncnc(-c2cc(F)c(C(=O)N3CCC4(CC3)CN(C)C4)c(Cl)c2)c1C#Cc1ccc(N)nc1", "note": "[Example E-337]", "IC50": 0.862}, {"compound": "CCc1ncnc(-c2ccc(C(=O)N3CCC4(CC3)CN(C)C4)c(Cl)c2)c1C#Cc1ccc(N)nc1", "note": "[Example E-338]", "IC50": 0.634}, {"compound": "CCc1ncnc(-c2ccc(C(=O)N3CCC4(CC3)CN(C)C4)c(F)c2)c1C#Cc1ccc(N)nc1", "note": "[Example E-339]", "IC50": 0.331}, {"compound": "CCc1ncnc(-c2cc(F)c(C(=O)N3CCN(C)C[C@H]3C)c(F)c2)c1C#Cc1ccc(N)nc1", "note": "[Example E-340]", "IC50": 0.364}, {"compound": "CCc1ncnc(-c2cc(F)c(C(=O)N3CCN(C)C[C@@H]3C)c(Cl)c2)c1C#Cc1ccc(N)nc1", "note": "[Example E-341]", "IC50": 0.282}, {"compound": "CCc1ncnc(-c2ccc(C(=O)N3CCN(Cc4ncon4)CC3)c(Cl)c2)c1C#Cc1ccc(N)nc1", "note": "[Example E-342]", "IC50": 0.137}, {"compound": "CCc1ncnc(-c2ccc(C(=O)N3CCN(CCOCCO)CC3)c(F)c2)c1C#Cc1ccc(N)nc1", "note": "[Example E-345]", "IC50": 0.109}, {"compound": "CCc1ncnc(-c2ccc(C(=O)N3CCN(Cc4ncon4)CC3)c(F)c2)c1C#Cc1ccc(N)nc1", "note": "[Example E-346]", "IC50": 0.167}, {"compound": "CCc1ncnc(-c2ccc(C(=O)N3CCN(C)C[C@H]3C)c(F)c2)c1C#Cc1ccc(N)nc1", "note": "[Example E-347]", "IC50": 0.205}, {"compound": "CCc1ncnc(-c2ccc(C(=O)N3CCN(C)C[C@@H]3C)c(F)c2)c1C#Cc1ccc(N)nc1", "note": "[Example E-348]", "IC50": 0.144}, {"compound": "CCc1ncnc(-c2ccc(C(=O)N3CCN(CC(C)(C)O)CC3)c(F)c2)c1C#Cc1ccc(N)nc1", "note": "[Example E-349]", "IC50": 0.175}]}]}
